Laboratory results published in paper PMC12040169 (PLOS Biology, 2025).

experiment: in vitro; details: human, hela cells, % viability

Row | SMILES | viability at 28.5 h, 10 µM [%]
1 | CC[C@H](Cn1c(=O)oc2ccccc21)NC(=O)C1CCCC1 [CBK284542] | 97.2
2 | COc1ccccc1NC(=S)NCCc1ccc(S(N)(=O)=O)cc1 [CBK266201] | 95.1
3 | CC(C)c1noc([C@@H]2C[C@H](NS(=O)(=O)c3ccc(F)cc3)CN2C)n1 [CBK288864] | 114
4 | COc1cc2c(cc1OC)CN(CCN1CCCCC1)CC2 [CBK126439] | 101
5 | Cc1sc(NC(=S)NC(=O)Cc2cccc3ccccc23)c(C(N)=O)c1C [CBK266344] | 91.4
6 | CC1(C)[C@H](Cc2cc(CO)on2)C[C@@H]1NC(=O)C1CCCCC1 [CBK289235] | 93.1
7 | COc1cccc(CCNC2CC(=O)N(c3ccc(NC(C)=O)cc3)C2=O)c1 (stereo not shown) [CBK265233] | 109
8 | COc1cc(OC)nc(C(NC(=O)C2CCN(Cc3nccs3)CC2)c2ccc(Cl)cc2)n1 (stereo not shown) [CBK148217] | 85.8
9 | Cc1ccc(C)c(OCCNCc2ccco2)c1Cl [CBK269718C] | 98.3
10 | CCCc1n[nH]c(C(C)C)c1C(=O)OCC [CBK115724] | 98.7
11 | OCCN1CCN(c2ccc(-c3cc(C(F)(F)F)cc(C(F)(F)F)c3)cn2)CC1 [CBK036941] | 99
12 | Cc1ccc(CS(=O)(=O)N2CCC3(CC2)CNC(=O)C3)cc1 [CBK283344] | 88.5
13 | COc1ccc(CC(=O)N2CCC(c3cc4cnccc4[nH]3)CC2)cc1 [CBK283451] | 87.2
14 | O=S(=O)(c1cc(Cl)ccc1Cl)N1CCCN(Cc2ccccc2)CC1 [CBK044491] | 104
15 | COc1ccc(CCNC(=O)N2CCN(CCc3ccccc3)CC2)cc1OC [CBK158915] | 102
16 | c1cnc(N2CCNCC2)c(OC2CCCCC2)n1 [CBK001837C] | 92.7
17 | Cc1c(S(=O)(=O)Nc2ccc3cn[nH]c3c2)cnn1-c1ccccc1 [CBK067149] | 92.4
18 | CC1(C)CC(NC(=O)CN2CCCCC2)CC(C)(C)N1 [CBK261956] | 92.4
19 | COc1ccc2c(CN(C)Cc3cc(C)[nH]n3)cn(C)c2c1 [CBK281734] | 103
20 | CN(C)CCN(C)c1cc(C(F)(F)F)nc(NCc2ccc(Cl)cc2)n1 [CBK009668] | 93
21 | CCSC(C)CC1C/C(=N/O)c2c(C)noc2C1 (stereo not shown) [CBK021455] | 88.4
22 | O=C(Nc1nccs1)C1CCCN(C(=O)c2ccco2)C1 (stereo not shown) [CBK296725] | 98.7

Row | SMILES | viability at 28.5 h, 10 µM [%]
23 | CC(SCc1ccccc1)C(=O)NCc1ccnc(OCC(F)(F)F)c1 (stereo not shown) [CBK298325] | 111
24 | O=C(Nc1cc(-c2nc3ncccc3o2)ccc1Cl)c1ccc(-c2ccccc2[N+](=O)[O-])o1 [CBK264097] | 89
25 | CS(=O)(=O)NC1CCCN(c2nc(-c3ccsc3)nc3ccccc23)C1 (stereo not shown) [CBK305623] | 99.1
26 | CSc1ncc(Cl)c(C(=O)Nc2sc3c(c2C(=O)NCc2ccco2)CCC3)n1 [CBK268991] | 97.2
27 | OCC(O)/C=N/Nc1nc(Nc2ccccc2)nc(N2CCCCC2)n1 (stereo not shown) [CBK262042] | 107
28 | O=C(c1ccco1)N1CCN(c2cc(-c3cc(C(F)(F)F)cc(C(F)(F)F)c3)ncn2)CC1 [CBK037734] | 102
29 | O=C(NC1CC1)C1CCN(Cn2nnc3ccccc3c2=S)CC1 [CBK306342] | 94.1
30 | CC[C@H](Cn1c(=O)oc2ccccc21)NC(=O)Cc1cccs1 [CBK284537] | 84.7
31 | O=C(c1cc(-c2ccncc2)nc2ccc(Cl)cc12)N1CCN(CCc2ccccc2)CC1 [CBK267719] | 86.6
32 | CC(C)(C)c1ccc(NC(=O)C(=O)NCCCn2ccnc2)cc1 [CBK267358] | 108
33 | Cc1nnc(N/N=C\c2c(Cl)cccc2Cl)[nH]c1=O [CBK027921] | 110
34 | CC(Sc1nc2cc(Cl)ccc2c(=O)n1CC1CCCO1)C(N)=O (stereo not shown) [CBK305935] | 99.6
35 | COCCN1C(=O)C2(CC(=O)N(CCN3CCCC3=O)C2=O)c2cc(OC)ccc21 (stereo not shown) [CBK075189] | 92.4
36 | COc1ccc(-c2nc(NC(=O)c3ccccn3)cnc2-c2cccc(C(F)(F)F)c2)cc1 [CBK036785] | 110
37 | CCn1nnnc1NCc1ccc(OCc2ccc(F)cc2Cl)c(OC)c1 [CBK268224] | 112
38 | CCOC(=O)c1c(-c2ccc(C)o2)csc1NC(=O)CN1CCCCC1C (stereo not shown) [CBK265917] | 105
39 | O=S(=O)(Cc1cccc(C(F)(F)F)c1)c1csc2ccnc(N3CCNCC3)c12 [CBK039166C] | 92
40 | O=C(O)c1ccsc1NS(=O)(=O)c1ccc(Oc2ccccc2)cc1 [CBK042259] | 89.8
41 | CCn1cc(CC(=O)NCCn2ccc(C)n2)c2ccccc21 [CBK282670] | 96.7
42 | COc1ccc(C2CCCC(N(CCN(C)C)C(=O)Nc3ccc(F)c(F)c3)C2)cc1OC (stereo not shown) [CBK059339C] | 84.8
43 | CC(C)(CN)CN(Cc1ccccc1Br)C(=O)NCc1ccc(F)cc1 [CBK002469C] | 92.9
44 | COc1cccc(C(CNS(=O)(=O)c2ccc3c(c2)OCCCO3)N(C)C)c1 (stereo not shown) [CBK298270] | 98.2

Row | SMILES | viability at 28.5 h, 10 µM [%]
45 | O=C1CCCN1CCOc1nccnc1-c1ccsc1 [CBK106759] | 89.7
46 | CSc1ccccc1Nc1ncnc2n[nH]cc12 [CBK288099] | 114
47 | O=c1[nH]ccn1CCNc1ccc(-c2ccccc2Oc2ccccc2)cn1 [CBK037665] | 103
48 | O=C(O)/C(=N\O)c1ccc(CCc2ccccc2)s1 [CBK261213] | 90.8
49 | Cn1nccc1NS(=O)(=O)c1cc(C(F)(F)F)cc(C(F)(F)F)c1 [CBK062090] | 92.6
50 | CC(=O)Nc1ccc(C(=O)N2CCCC(c3cccc(Cc4ccc(Cl)cc4)n3)C2)cc1 (stereo not shown) [CBK286134] | 99.9
51 | FC(F)(F)c1ccnc(OC2CCNCC2)n1 [CBK113294] | 118
52 | CC(C)NC(=O)C1CN(Cc2ccccc2)CC12CCc1ccccc1C2NC(=O)CN (stereo not shown) [CBK283093] | 79.4
53 | Cc1cccc(-c2noc(CN(C(=O)c3ccc4c(c3)OCO4)C(C)C)n2)c1 [CBK268817] | 98.1
54 | Cc1ccccc1Nc1nc(N)nc(CN2CCCC2C(=O)N(C)C)n1 (stereo not shown) [CBK305638] | 81
55 | CC(=O)[C@H]1C[C@@H](CC(=O)N2CCN(c3ccc(C(F)(F)F)cc3)CC2)C1(C)C [CBK091330] | 93.6
56 | O=C(NC(c1ccccc1)c1ccccc1)N1CCN(CCc2ccccc2)CC1 [CBK158905] | 101
57 | COc1ccc(F)cc1-c1ccc(CC2(C(=O)NCc3cccs3)CCOCC2)cc1 [CBK285540] | 112
58 | c1ccc2c(c1)CCC2Oc1cncc(N2CCNCC2)n1 (stereo not shown) [CBK200005G] | 91
59 | CNC(=O)CSc1nccc(C(F)(F)F)n1 [CBK107759] | 101
60 | Cc1c(C(=O)N2CCC(C(=O)c3cccnc3)CC2)oc2ccccc12 [CBK283954] | 88.9
61 | Cc1ccc(Cl)cc1-n1cc(-c2ccc(Cl)cc2)nn1 [CBK113045] | 82.4
62 | COc1ccc(S(=O)(=O)NCCSCc2cccc(Cl)c2)c(Cl)c1Cl [CBK266281] | 97.6
63 | Cc1ccc(C)c(C2CCCN2C(=O)Cn2cccc(C(=O)NCc3ccccc3)c2=O)c1 (stereo not shown) [CBK286062] | 78.5
64 | CCc1ccc(CNC(=O)Cn2nnc(-c3ccc(CNC4CCOCC4)cc3)n2)cc1 [CBK161029C] | 89.8
65 | COc1ncc(-c2nccnc2NCc2cccnc2)c(OC)n1 [CBK036817] | 101
66 | Cc1nc(NC(=O)C2Cc3ccccc3S2)sc1-c1n[nH]c(=S)n1C (stereo not shown) [CBK295337] | 98

Row | SMILES | viability at 28.5 h, 10 µM [%]
67 | C=CCn1c(SCC(=O)Nc2ccc(OC)cc2)nnc1-c1ccncc1 [CBK126824] | 88.9
68 | Nc1ncc(-c2ccco2)nc1NCc1ccco1 [CBK063682] | 91.8
69 | Cn1cc(C(Nc2cccc(C#N)n2)[C@H]2C[C@H](O)C2)cn1 (stereo partly shown) [CBK307011] | 105
70 | Cc1ccc2[nH]cc(CCNC(=O)c3cccc(NC(=O)c4ccccc4)c3)c2c1 [CBK269235] | 86.6
71 | CCOC(=O)CSC1=NNC(C)(c2c(O)c3ccccc3n(CC)c2=O)N1 (stereo not shown) [CBK009370] | 92.5
72 | Cc1cc(/C=C2/C(=N)N3N=C(Cc4ccccc4)SC3=NC2=O)c(C)n1-c1ccccc1 [CBK264318] | 100
73 | COc1cc(C(=O)N2CCCC3(CCN(C(=O)c4ccoc4)C3)C2)cc(OC)c1OC (stereo not shown) [CBK131637] | 114
74 | CCc1ccc(OCC(=O)NC(=S)Nc2cccc3nsnc23)cc1 [CBK267173] | 100
75 | Clc1ccccc1CSc1nnc2c(n1)OC=Nc1ccccc1-2 [CBK265085] | 99.1
76 | O=[N+]([O-])c1cc(F)ccc1Oc1cccc(Cl)c1Cl [CBK002604] | 112
77 | N#Cc1ccc(CNC(=O)c2ccc3nc[nH]c3c2)cc1 [CBK153332] | 95.1
78 | O=S1(=O)CCN(Cc2cnn(-c3ccc(OC(F)(F)F)cc3)n2)CC1 [CBK112883] | 95.3
79 | O=C(OCc1ccccc1)N1CCC(n2ccn(C(=O)CCC3CCCC3)c2=O)CC1 [CBK106670] | 86.7
80 | CCOC(=O)c1csc(C2CCCN2C(=O)c2ccsc2)n1 (stereo not shown) [CBK304125] | 77.5
81 | c1ccc2c(c1)NCC21CCNCC1 [CBK022583] | 101
82 | CN(C)C(=O)CN1CC[C@@H](c2ccccc2)[C@H](O)C1 [CBK283979] | 83
83 | CCn1ncc(S(=O)(=O)N2CCCC(c3ccccc3)C2)c1C (stereo not shown) [CBK282760] | 100
84 | C=CCn1c(Cc2csc(NC(=O)c3ccc(S(C)(=O)=O)cc3)n2)n[nH]c1=S [CBK295340] | 97
85 | O=[N+]([O-])c1ccc(NCCNCCO)c(Cl)c1 [CBK261006] | 97.5
86 | COc1ccc(-n2nc3ccc(NC(=O)c4sc5ccccc5c4Cl)cc3n2)cc1Cl [CBK264633] | 94.5
87 | NS(=O)(=O)c1ccc(CCNC(=O)c2cccnc2)cc1 [CBK268158] | 102

same assay, conditions: human, hela cells, % viability, bulk resorufin, single well

Row | SMILES | viability at 28.5 h, 10 µM [%]
88 | O=C(Cc1ccc(Cl)c(Cl)c1)Nc1ccccc1-c1ccc2c(c1)COC1(CCNCC1)O2 [CBK107890] | 100
